Laboratory results published in patent US8450243B2, “Herbicidal quinoline and 1,8-naphthyridine compounds” (Syngenta Limited, priority 2009, dated 2013).

Tests used:
Type in all cases: in vivo
[1] = test system: Echinochloa crus-galli (ECHCG); assay: Herbicidal glasshouse test, post-emergence; details: POST Application, evaluated after 13 days; for pest or weed control at 250 g/ha: Echinochloa crus-galli, post-emergence, 312 h, read-out: damage to plant (100=total damage to plant; 0=no damage to plant)
Procedure: (§1) Seeds of a variety of test species were sown in standard soil in pots (Alopecurus myosuroides (ALOMY), Setaria faberi (SETFA), Echinochloa crus-galli (ECHCG), Abuthilon theophrasti (ABUTH) and Amaranthus retoflexus (AMARE)). After cultivation for one day (pre-emergence) or after 8 days cultivation (post-emergence) under controlled conditions in a glasshouse (at 24/16° C., day/night; 14 hours light; 65% humidity), the plants were sprayed with an aqueous spray solution derived from the formulation of the technical active ingredient in acetone/water (50:50) solution containing 0.5% Tween 20 (polyoxyethelyene sorbitan monolaurate, CAS RN 9005-64-5). Compounds were applied at 250 g/ha. The test plants were then grown in a glasshouse under controlled conditions in a glasshouse (at 24/16° C., day/night; 14 hours light; 65% humidity) and watered twice daily. After 13 days for pre and post-emergence, the test was evaluated (100=total damage to plant; 0=no damage to plant).

[2] = test system: Amaranthus retoflexus (AMARE); assay: Herbicidal glasshouse test, post-emergence; details: POST Application, evaluated after 13 days; for pest or weed control at 250 g/ha: Amaranthus retroflexus, post-emergence, 312 h, read-out: damage to plant (100=total damage to plant; 0=no damage to plant)
Procedure: as §1

[3] = test system: Alopecurus myosuroides (ALOMY); assay: Herbicidal glasshouse test, post-emergence; details: POST Application, evaluated after 13 days; for pest or weed control at 250 g/ha: Alopecurus myosuroides, post-emergence, 312 h, read-out: damage to plant (100=total damage to plant; 0=no damage to plant)
Procedure: as §1

[4] = test system: Abuthilon theophrasti (ABUTH); assay: Herbicidal glasshouse test, post-emergence; details: POST Application, evaluated after 13 days; for pest or weed control at 250 g/ha: Abutilon theophrasti, post-emergence, 312 h, read-out: damage to plant (100=total damage to plant; 0=no damage to plant)
Procedure: as §1

[5] = test system: Setaria faberi (SETFA); assay: Herbicidal glasshouse test, post-emergence; details: POST Application, evaluated after 13 days; for pest or weed control at 250 g/ha: Setaria faberi, post-emergence, 312 h, read-out: damage to plant (100=total damage to plant; 0=no damage to plant)
Procedure: as §1

[6] = test system: Echinochloa crus-galli (ECHCG); assay: Herbicidal glasshouse test, pre-emergence; details: PRE Application, evaluated after 13 days; for pest or weed control at 250 g/ha: Echinochloa crus-galli, pre-emergence, 312 h, read-out: damage to plant (100=total damage to plant; 0=no damage to plant)
Procedure: as §1

[7] = test system: Amaranthus retoflexus (AMARE); assay: Herbicidal glasshouse test, pre-emergence; details: PRE Application, evaluated after 13 days; for pest or weed control at 250 g/ha: Amaranthus retroflexus, pre-emergence, 312 h, read-out: damage to plant (100=total damage to plant; 0=no damage to plant)
Procedure: as §1

[8] = test system: Alopecurus myosuroides (ALOMY); assay: Herbicidal glasshouse test, pre-emergence; details: PRE Application, evaluated after 13 days; for pest or weed control at 250 g/ha: Alopecurus myosuroides, pre-emergence, 312 h, read-out: damage to plant (100=total damage to plant; 0=no damage to plant)
Procedure: as §1

[9] = test system: Abuthilon theophrasti (ABUTH); assay: Herbicidal glasshouse test, pre-emergence; details: PRE Application, evaluated after 13 days; for pest or weed control at 250 g/ha: Abutilon theophrasti, pre-emergence, 312 h, read-out: damage to plant (100=total damage to plant; 0=no damage to plant)
Procedure: as §1

[10] = test system: Setaria faberi (SETFA); assay: Herbicidal glasshouse test, pre-emergence; details: PRE Application, evaluated after 13 days; for pest or weed control at 250 g/ha: Setaria faberi, pre-emergence, 312 h, read-out: damage to plant (100=total damage to plant; 0=no damage to plant)
Procedure: as §1

SMILES: Cc1ccc2cc(C(=O)C3C(=O)CCCC3=O)c(=O)n(C)c2n1 [Compound 1.2, 2-(1,7-Dimethyl-2-oxo-1,2-dihydro[1,8]-naphthyridine-3-carbonyl)-cyclohexane-1,3-dione]
- pest or weed control at 250 g/ha [1]: 80%
- pest or weed control at 250 g/ha [2]: 80%
- pest or weed control at 250 g/ha [3]: 40%
- pest or weed control at 250 g/ha [4]: 80%
- pest or weed control at 250 g/ha [5]: 80%
- pest or weed control at 250 g/ha [6]: 90%
- pest or weed control at 250 g/ha [7]: 40%
- pest or weed control at 250 g/ha [8]: 20%
- pest or weed control at 250 g/ha [9]: 70%
- pest or weed control at 250 g/ha [10]: 70%

SMILES: Cn1c(=O)c(C(=O)C2C(=O)CCCC2=O)cc2cccnc21 [Compound 1.29]
- pest or weed control at 250 g/ha [1]: 80%
- pest or weed control at 250 g/ha [2]: 90%
- pest or weed control at 250 g/ha [3]: 30%
- pest or weed control at 250 g/ha [4]: 90%
- pest or weed control at 250 g/ha [5]: 90%
- pest or weed control at 250 g/ha [6]: 100%
- pest or weed control at 250 g/ha [7]: 100%
- pest or weed control at 250 g/ha [8]: 30%
- pest or weed control at 250 g/ha [9]: 90%
- pest or weed control at 250 g/ha [10]: 10%

SMILES: Cc1cc(C)c2cc(C(=O)C3C(=O)CCCC3=O)c(=O)n(C)c2n1 [Compound 1.42]
- pest or weed control at 250 g/ha [1]: 70%
- pest or weed control at 250 g/ha [2]: 70%
- pest or weed control at 250 g/ha [3]: 0%
- pest or weed control at 250 g/ha [4]: 50%
- pest or weed control at 250 g/ha [5]: 60%
- pest or weed control at 250 g/ha [6]: 0%
- pest or weed control at 250 g/ha [7]: 0%
- pest or weed control at 250 g/ha [8]: 0%
- pest or weed control at 250 g/ha [9]: 0%
- pest or weed control at 250 g/ha [10]: 0%

SMILES: COCn1c(=O)c(C(=O)C2C(=O)CCCC2=O)cc2cc(F)cnc21 [Compound 1.43]
- pest or weed control at 250 g/ha [1]: 80%
- pest or weed control at 250 g/ha [2]: 80%
- pest or weed control at 250 g/ha [3]: 60%
- pest or weed control at 250 g/ha [4]: 80%
- pest or weed control at 250 g/ha [5]: 80%
- pest or weed control at 250 g/ha [6]: 100%
- pest or weed control at 250 g/ha [7]: 100%
- pest or weed control at 250 g/ha [8]: 40%
- pest or weed control at 250 g/ha [9]: 100%
- pest or weed control at 250 g/ha [10]: 100%

SMILES: COCCn1c(=O)c(C(=O)C2C(=O)CCCC2=O)cc2cc(F)cnc21 [Compound 1.44]
- pest or weed control at 250 g/ha [1]: 80%
- pest or weed control at 250 g/ha [2]: 80%
- pest or weed control at 250 g/ha [3]: 80%
- pest or weed control at 250 g/ha [4]: 90%
- pest or weed control at 250 g/ha [5]: 80%
- pest or weed control at 250 g/ha [6]: 100%
- pest or weed control at 250 g/ha [7]: 100%
- pest or weed control at 250 g/ha [8]: 90%
- pest or weed control at 250 g/ha [9]: 90%
- pest or weed control at 250 g/ha [10]: 100%

SMILES: O=C1CCCC(=O)C1C(=O)c1cc2cc(F)cnc2n(CC(F)F)c1=O [Compound 1.45]
- damage to plant (100=total damage to plant; 0=no damage to plant) ([1]; 250 g/ha): 80
- damage to plant (100=total damage to plant; 0=no damage to plant) ([2]; 250 g/ha): 80
- damage to plant (100=total damage to plant; 0=no damage to plant) ([3]; 250 g/ha): 60
- damage to plant (100=total damage to plant; 0=no damage to plant) ([4]; 250 g/ha): 80
- damage to plant (100=total damage to plant; 0=no damage to plant) ([5]; 250 g/ha): 80
- damage to plant (100=total damage to plant; 0=no damage to plant) ([6]; 250 g/ha): 100
- damage to plant (100=total damage to plant; 0=no damage to plant) ([7]; 250 g/ha): 100
- damage to plant (100=total damage to plant; 0=no damage to plant) ([8]; 250 g/ha): 70
- damage to plant (100=total damage to plant; 0=no damage to plant) ([9]; 250 g/ha): 100
- damage to plant (100=total damage to plant; 0=no damage to plant) ([10]; 250 g/ha): 80

SMILES: COCn1c(=O)c(C(=O)C2C(=O)CCCC2=O)cc2cc(F)c(C)nc21 [Compound 1.46]
- pest or weed control at 250 g/ha [1]: 80%
- pest or weed control at 250 g/ha [2]: 70%
- pest or weed control at 250 g/ha [3]: 70%
- pest or weed control at 250 g/ha [4]: 100%
- pest or weed control at 250 g/ha [5]: 70%
- pest or weed control at 250 g/ha [6]: 100%
- pest or weed control at 250 g/ha [7]: 100%
- pest or weed control at 250 g/ha [8]: 60%
- pest or weed control at 250 g/ha [9]: 80%
- pest or weed control at 250 g/ha [10]: 80%
